Assay results taken from PMC8444087 (Toxicology and Applied Pharmacology, 2021).
Bridge positions count the residues as written; N and C are the ends. Ends that are not written are not given here.

How the values were obtained:
[1] = molecular target: T1, α1 I-domain (Homo sapiens, UniProt P56199); assay: Protein static adhesion assay: GST-tagged α1 I-domain adhesion to GLOGEN peptide coating; format: binding; conditions: TC-I-15 200 μM, Obtustatin 20 μM, 6F1 10 μg/ml
T1 construct: GST-tagged αI-domains were tested in static adhesion assays; made in house
T1 sequence (P56199 161-360 limits assumed): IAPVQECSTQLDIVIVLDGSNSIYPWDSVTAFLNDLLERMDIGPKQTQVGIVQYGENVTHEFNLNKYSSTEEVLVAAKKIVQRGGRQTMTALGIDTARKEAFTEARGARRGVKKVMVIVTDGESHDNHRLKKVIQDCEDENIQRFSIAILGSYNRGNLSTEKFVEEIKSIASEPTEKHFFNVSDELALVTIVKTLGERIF
Experimental: Immulon 2HB 96-well plates were coated with 100 μl per well of peptides at 10 μg/ml in 0.01 M acetic acid. After 3 × 200 μl/well washes with washing buffer (1 mg/ml BSA in TBS), plates were blocked with 200 μl per well of filtered 3% BSA in TBS for 1 h at RT. αI-domains were added at 10 μg/ml in washing buffer for 1 h at RT with 5 mM MgCl2 and various concentrations of inhibitor as stated. After 3 × 200 μl/well washes with washing buffer, anti-GST detection antibody (GE Healthcare HRP conjugated anti-GST GERPN1236) were added for 1 h. Plates were washed 4× with 200 μl per well of washing buffer and bound protein was quantified using the Pierce™ TMB Substrate Kit. The colorimetric reaction was stopped with an equal volume of 1 M H2SO4 and A450 was read as above. Each condition was performed in triplicate and each experiment was repeated at least three times using different preparations of proteins. […]
Fig. 1 Inhibition of binding of recombinant αI-domains to peptide coatings. Adhesion of A, α1 I-domain to GLOGEN and B, α2 I-domain to GFOGER, was measured using anti-GST-HRP conjugated antibody as described in Materials and methods, and is shown as mean A450 ± SD. […]

[2] = molecular target: T2, α11β1 (UniProt P09055+Q9UKX5); assay: Cellular static adhesion assay: C2C12 cells expressing α11β1 on collagen peptides; format: cell-based, human α-subunit, mouse β-subunit
T2 construct: expressed in transfected cells; host or cells: C2C12 mouse myofibroblasts, stably transfected
T2 sequence (Q9UKX5 23-1188): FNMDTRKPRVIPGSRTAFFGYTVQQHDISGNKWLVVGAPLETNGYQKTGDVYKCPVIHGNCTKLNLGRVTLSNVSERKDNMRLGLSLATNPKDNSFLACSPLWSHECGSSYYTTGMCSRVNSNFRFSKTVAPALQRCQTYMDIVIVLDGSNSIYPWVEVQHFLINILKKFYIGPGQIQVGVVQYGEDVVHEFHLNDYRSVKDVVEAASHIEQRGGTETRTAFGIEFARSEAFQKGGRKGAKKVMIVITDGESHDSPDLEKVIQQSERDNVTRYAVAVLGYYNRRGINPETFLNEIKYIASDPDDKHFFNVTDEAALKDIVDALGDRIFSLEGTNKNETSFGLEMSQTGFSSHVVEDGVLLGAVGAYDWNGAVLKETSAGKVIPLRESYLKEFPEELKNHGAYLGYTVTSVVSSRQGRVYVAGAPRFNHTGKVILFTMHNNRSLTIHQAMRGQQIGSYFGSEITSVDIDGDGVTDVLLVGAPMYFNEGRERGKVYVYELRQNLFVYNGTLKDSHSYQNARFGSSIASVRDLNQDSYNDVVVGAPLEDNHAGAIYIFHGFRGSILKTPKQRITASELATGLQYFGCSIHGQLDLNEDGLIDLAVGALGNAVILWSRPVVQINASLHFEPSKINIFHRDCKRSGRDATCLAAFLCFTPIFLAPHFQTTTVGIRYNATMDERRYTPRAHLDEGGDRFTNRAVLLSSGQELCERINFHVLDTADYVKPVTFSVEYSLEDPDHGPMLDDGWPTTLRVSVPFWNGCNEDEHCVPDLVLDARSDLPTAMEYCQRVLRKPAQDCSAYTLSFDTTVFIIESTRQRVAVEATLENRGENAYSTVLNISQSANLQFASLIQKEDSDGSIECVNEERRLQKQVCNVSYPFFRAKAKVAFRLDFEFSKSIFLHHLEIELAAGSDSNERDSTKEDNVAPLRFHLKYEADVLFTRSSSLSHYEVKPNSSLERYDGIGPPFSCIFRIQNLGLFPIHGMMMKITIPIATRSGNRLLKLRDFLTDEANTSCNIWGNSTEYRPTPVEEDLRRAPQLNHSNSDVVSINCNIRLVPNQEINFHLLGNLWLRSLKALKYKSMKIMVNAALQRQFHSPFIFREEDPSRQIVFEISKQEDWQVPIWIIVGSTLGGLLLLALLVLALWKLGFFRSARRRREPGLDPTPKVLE
T2 sequence (P09055 21-798): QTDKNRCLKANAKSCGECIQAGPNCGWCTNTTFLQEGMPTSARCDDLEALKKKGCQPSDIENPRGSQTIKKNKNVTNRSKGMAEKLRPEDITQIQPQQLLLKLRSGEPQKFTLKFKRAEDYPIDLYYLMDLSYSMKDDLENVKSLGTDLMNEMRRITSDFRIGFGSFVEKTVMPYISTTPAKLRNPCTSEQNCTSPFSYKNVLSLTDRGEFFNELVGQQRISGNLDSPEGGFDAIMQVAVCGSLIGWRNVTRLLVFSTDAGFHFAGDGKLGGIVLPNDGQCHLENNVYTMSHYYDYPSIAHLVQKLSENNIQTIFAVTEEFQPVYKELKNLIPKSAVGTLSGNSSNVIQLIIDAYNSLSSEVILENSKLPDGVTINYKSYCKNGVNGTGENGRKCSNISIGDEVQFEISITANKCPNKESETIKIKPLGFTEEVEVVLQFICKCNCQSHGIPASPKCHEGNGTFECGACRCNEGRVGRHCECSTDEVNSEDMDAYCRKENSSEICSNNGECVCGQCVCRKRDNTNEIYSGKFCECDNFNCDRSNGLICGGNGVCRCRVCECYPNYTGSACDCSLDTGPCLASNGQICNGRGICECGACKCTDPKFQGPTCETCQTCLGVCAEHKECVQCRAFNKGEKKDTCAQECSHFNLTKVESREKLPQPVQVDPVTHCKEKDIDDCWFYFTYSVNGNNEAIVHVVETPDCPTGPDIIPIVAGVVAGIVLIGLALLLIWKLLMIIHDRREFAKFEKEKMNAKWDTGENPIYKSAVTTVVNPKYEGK
Experimental: (§1) C2C12s and HT1080s were grown in Lifetech DMEM/10% FBS and 1% penicillin/streptomycin. All cells were maintained under sterile conditions at 37 °C, 5% CO2. Cells were passaged using Trypsin/EDTA at 37 °C for 5 min and DMEM/10% FBS to quench the trypsin. C2C12 cells were transfected as described previously ([Tiger et al., 2001]). The C2C12-α10 clone was kindly made available by Dr. Evy Lundgren-Åkerlund, Xintela AB, Sweden.
(§2) Immulon 2HB 96-well plates were coated with 100 μl per well of peptides at 10 μg/ml in 0.01 M acetic acid overnight at 4 °C. After 3 × 200 μl/well PBS washes, plates were blocked with 200 μl/well filtered 3% BSA in PBS at RT for 1 h. Plates were washed, and 20,000 cells/well were added at room temperature (RT) for 1 h in serum-free media with 5 mM MgCl2 and varying concentrations of inhibitor. Unbound cells were washed away with 3× washes of 200 μl/well PBS. […] Cell number was quantified using 50 μl per well of the Roche cytotoxicity LDH kit. […] A490 was read in a SpectraMax 190 microplate reader (Molecular Devices). […]
(§3) PRISM 8.2.1 or later (GraphPad, San Diego, CA, USA), was used for all statistical tests. […] Inhibition curves were analysed using nonlinear regression comparing each data set with either a horizontal line model (null hypothesis, no inhibition) or three-parameter dose-response curve (inhibition occurs). […]

[3] = system: E318A mutation of α2β1; parameters: method as in Miller et al., 2009; conditions: ref Miller et al., 2009; cited from earlier work
[4] = system: platelets; parameters: method as in Miller et al., 2009; conditions: RGD-containing ligands; ref Miller et al., 2009; cited from earlier work
[5] = molecular target: T3, α10β1 (UniProt O75578+P09055); assay: Cellular static adhesion assay: C2C12 cells expressing α10β1 on collagen peptides; format: cell-based, human α-subunit, mouse β-subunit; conditions: C2C12-α10β1, GFOGER and GLOGEN coatings
T3 construct: expressed in transfected cells; host or cells: C2C12-α10 clone (gift, Xintela AB)
T3 sequence (O75578 23-1167): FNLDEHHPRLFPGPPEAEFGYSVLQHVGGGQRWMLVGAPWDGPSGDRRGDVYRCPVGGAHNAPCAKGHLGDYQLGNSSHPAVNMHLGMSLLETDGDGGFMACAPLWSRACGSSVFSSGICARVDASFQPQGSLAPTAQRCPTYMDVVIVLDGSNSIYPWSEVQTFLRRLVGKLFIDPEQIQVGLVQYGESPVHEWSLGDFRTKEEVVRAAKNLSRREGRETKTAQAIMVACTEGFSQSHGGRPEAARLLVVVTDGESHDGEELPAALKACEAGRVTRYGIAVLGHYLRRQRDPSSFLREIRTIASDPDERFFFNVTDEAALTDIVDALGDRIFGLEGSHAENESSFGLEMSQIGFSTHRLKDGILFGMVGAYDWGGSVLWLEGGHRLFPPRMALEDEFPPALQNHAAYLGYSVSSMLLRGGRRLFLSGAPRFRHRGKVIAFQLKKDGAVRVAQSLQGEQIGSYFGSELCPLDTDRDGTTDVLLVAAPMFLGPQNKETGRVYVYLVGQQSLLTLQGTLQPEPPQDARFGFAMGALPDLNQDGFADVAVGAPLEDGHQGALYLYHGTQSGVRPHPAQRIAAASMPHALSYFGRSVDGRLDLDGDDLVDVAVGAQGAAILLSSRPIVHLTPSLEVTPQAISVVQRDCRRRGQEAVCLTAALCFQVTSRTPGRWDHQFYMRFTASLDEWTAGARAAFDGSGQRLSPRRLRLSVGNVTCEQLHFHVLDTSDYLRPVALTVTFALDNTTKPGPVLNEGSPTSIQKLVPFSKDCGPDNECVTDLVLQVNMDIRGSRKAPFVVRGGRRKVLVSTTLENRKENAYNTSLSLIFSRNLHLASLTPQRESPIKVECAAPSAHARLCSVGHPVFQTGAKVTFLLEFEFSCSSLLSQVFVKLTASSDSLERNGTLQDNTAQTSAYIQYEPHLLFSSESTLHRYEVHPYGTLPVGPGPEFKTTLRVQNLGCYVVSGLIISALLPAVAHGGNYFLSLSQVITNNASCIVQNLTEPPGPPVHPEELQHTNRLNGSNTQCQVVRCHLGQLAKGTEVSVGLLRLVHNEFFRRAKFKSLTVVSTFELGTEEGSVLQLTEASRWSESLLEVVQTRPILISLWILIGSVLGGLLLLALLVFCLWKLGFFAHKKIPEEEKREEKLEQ
T3 sequence (P09055 21-798): as the sequence (P09055 21-798) above
Experimental: as §1, §2, §3

[6] = molecular target: T4, α2 I-domain (Homo sapiens, UniProt P17301); assay: Protein static adhesion assay: GST-tagged α2 I-domain adhesion to GFOGER peptide coating; format: binding; conditions: TC-I-15 200 μM, Obtustatin 20 μM
T4 construct: GST-tagged αI-domains were tested in static adhesion assays; made in house
T4 sequence (P17301 188-365 limits assumed): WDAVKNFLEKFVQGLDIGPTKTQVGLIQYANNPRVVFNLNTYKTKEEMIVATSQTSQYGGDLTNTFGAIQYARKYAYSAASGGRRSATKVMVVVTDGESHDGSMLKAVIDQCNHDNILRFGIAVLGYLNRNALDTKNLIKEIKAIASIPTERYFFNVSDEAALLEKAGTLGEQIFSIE
Experimental: Peptides contain a binding motif (such as GFOGER) flanked on either side by five GPP repeats and a GPC triplet at both the N- and C-termini. […] Peptides were dissolved at 5 mg/ml in 0.01 M acetic acid, heated to 70 °C for 5 min and allowed to cool overnight to enable triple helix folding. […]

[7] = molecular target: T5, α2β1 (UniProt P09055+P17301); assay: Cellular static adhesion assay: C2C12 cells expressing α2β1 on collagen peptides; format: cell-based, human α-subunit, mouse β-subunit; conditions: C2C12-α2β1, GFOGER and GLOGEN coatings
T5 construct: expressed in transfected cells; host or cells: C2C12 mouse myofibroblasts, stably transfected
Description: (§4) (For interpretation of the references to colour in this figure legend, the reader is referred to the web version of this article.)

[8] = system: melanoma; parameters: method as in Marcinkiewicz et al., 2003; Brown et al., 2008; conditions: mice; ref Marcinkiewicz et al., 2003; Brown et al., 2008; cited from earlier work
[9] = system: Lewis lung carcinoma; parameters: method as in Marcinkiewicz et al., 2003; Brown et al., 2008; conditions: mouse Lewis lung carcinoma model; ref Marcinkiewicz et al., 2003; Brown et al., 2008; cited from earlier work
[10] = molecular target: T6, α2β1 (Homo sapiens, UniProt P05556+P17301); assay: Cellular static adhesion assay: HT1080 cells (express α2β1) on GFOGER; format: cell-based; conditions: GFOGER coating, dose curve
T6 construct: endogenous in cells; host or cells: HT1080 human fibrosarcoma cells
Description: as §4

[11] = molecular target: integrin α1β1 on stably transfected C2C12 cells (human | mouse (endogenous in C2C12)) (UniProt P56199); assay: static cell adhesion assay; inhibition by obtustatin (dose curve) of the adhesion of integrin-expressing cells to coated GFOGER; 1 h at RT, serum-free medium, 5 mM MgCl2; three-parameter dose-response fit
integrin α1β1 on stably transfected C2C12 cells (human | mouse (endogenous in C2C12)), sequence (P56199 29-1179, chain 1 of 2): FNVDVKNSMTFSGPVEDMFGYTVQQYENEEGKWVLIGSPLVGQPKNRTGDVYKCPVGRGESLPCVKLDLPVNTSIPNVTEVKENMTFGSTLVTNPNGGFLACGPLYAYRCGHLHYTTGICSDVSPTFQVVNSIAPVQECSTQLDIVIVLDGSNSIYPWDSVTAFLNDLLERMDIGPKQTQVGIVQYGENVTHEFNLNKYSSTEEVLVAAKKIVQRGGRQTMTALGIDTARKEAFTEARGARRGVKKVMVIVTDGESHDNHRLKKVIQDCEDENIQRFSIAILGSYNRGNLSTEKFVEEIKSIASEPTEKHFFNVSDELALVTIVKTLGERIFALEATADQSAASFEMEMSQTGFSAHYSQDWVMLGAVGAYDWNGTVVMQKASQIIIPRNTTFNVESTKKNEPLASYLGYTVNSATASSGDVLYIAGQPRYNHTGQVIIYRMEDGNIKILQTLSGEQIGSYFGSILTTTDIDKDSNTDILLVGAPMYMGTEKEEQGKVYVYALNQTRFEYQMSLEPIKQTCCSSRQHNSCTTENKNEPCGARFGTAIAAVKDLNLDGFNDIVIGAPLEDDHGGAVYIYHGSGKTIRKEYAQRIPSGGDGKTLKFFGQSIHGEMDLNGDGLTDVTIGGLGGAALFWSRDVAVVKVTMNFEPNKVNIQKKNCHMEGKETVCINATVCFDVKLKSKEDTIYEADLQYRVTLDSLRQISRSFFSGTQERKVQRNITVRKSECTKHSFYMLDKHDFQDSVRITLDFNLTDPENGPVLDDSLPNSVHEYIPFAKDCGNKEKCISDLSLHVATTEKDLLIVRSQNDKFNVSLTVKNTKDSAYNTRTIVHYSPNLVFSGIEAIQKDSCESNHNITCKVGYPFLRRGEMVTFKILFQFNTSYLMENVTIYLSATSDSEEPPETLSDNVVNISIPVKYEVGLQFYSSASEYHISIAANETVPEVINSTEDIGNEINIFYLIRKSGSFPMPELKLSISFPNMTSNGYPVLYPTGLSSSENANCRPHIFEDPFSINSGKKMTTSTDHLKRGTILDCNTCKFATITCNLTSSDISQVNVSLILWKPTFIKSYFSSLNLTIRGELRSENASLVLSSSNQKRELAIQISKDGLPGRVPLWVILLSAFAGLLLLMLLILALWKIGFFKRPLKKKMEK
integrin α1β1 on stably transfected C2C12 cells (human | mouse (endogenous in C2C12)), sequence (P09055 21-798, chain 2 of 2, further chain): as the sequence (P09055 21-798) above

[12] = molecular target: integrin α1β1 on stably transfected C2C12 cells (human | mouse (endogenous in C2C12)) (UniProt P56199); assay: static cell adhesion assay; inhibition by obtustatin (dose curve) of the adhesion of integrin-expressing cells to coated GLOGEN; 1 h at RT, serum-free medium, 5 mM MgCl2; three-parameter dose-response fit

Compound	Effect on α1 I-domain adhesion to GLOGEN [1]	IC50 ([2]; C2C12-α11β1, GLOGEN coating, 5 mM MgCl2, 1 h RT, read-out: IC50, inhibition of α11β1-expressing C2C12 cell adhesion to GLOGEN) [nM]	Effect on constitutively active E318A mutation of α2β1 [3]	Effect on adhesion of platelets to fibronectin and fibrinogen [4]	Inhibition of α10β1-expressing C2C12 cell adhesion (dose curve) [5]	Effect on α2 I-domain adhesion to GFOGER [6]	Inhibition of α2β1-expressing C2C12 cell adhesion (dose curve) [7]	Inhibition of α11β1-expressing C2C12 cell adhesion (dose curve) ([2]; C2C12-α11β1, GFOGER and GLOGEN coatings)	Effect on melanoma growth [8]	Reduction of tumour development [9] [%]	Effect on HT1080 adhesion to GFOGER [10]	IC50 [11] [nM]	IC50 [12] [nM]
CC1(C)SCN(S(=O)(=O)c2ccccc2)[C@@H]1C(=O)N[C@@H](CNC(=O)NCc1ccccc1)C(=O)O [TC-I-15]	unaffected	177000	no effect	no effect	no inhibition was seen	–	–	–	–	–	–	–	–
CTTGPCCRQCKLKPAGTTCWKTSLTSHYCTGKSCDCPLYPG (disulfide 1-10, 6-29, 7-34, 19-36 (inferred)) [obtustatin]	unaffected	–	–	–	no inhibition was observed	unaffected	no inhibition was observed	no inhibition was observed	blocked melanoma growth	50	no effect	–	–
obtustatin (peptide)	–	–	–	–	–	–	–	–	–	–	–	450	960
